This note sets out measurements from publication PMC9317966, “Structure-function analysis of the AMPK activator SC4 and identification of a potent pan AMPK activator” (Biochemical Journal, 2022).

Molecules are shown by their SMILES.

The target in the test is T1, E. coli-expressed His-α2β1γ1 AMPK (Homo sapiens, UniProt P54646+Q9Y478).
T1 construct: Recombinant full-length AMPK 6xHisα2β1γ1 was expressed in E. coli Rosetta 2 (DE3); made in house; host or cells: E. coli Rosetta 2 (DE3)
In words: In solution SAMS kinase assay, E. coli-expressed myristoylated His-α2β1γ1, CaMKK2-treated. It is filed as biochemical. The note with it: for EC50 / Max. fold activation: E. coli-expressed α2β1γ1, CaMKK2-treated; for sensitivity to activation relative to immobilised GST-α2β1γ1 from HEK293T/17 cells: His-tagged myristoylated α2β1γ1, E. coli, CaMKK2-treated. An excerpt: We directly compared in vitro potencies of pan activators by performing radiolabel kinase assays with γ1AMPK complexes. Initially, we used GST-tagged γ1AMPK expressed in HEK293T/17 cells and immobilised on glutathione-Sepharose (Figure 2 and Table 2). […] These assays used AMPK purified from Sf9 insect cells or E. coli that was pre-treated with CaMKK2. […] However, relative to immobilised GST-α2β1γ1 from HEK293T/17 cells, His-tagged and myristoylated α2β1γ1 AMPK (expressed in E. coli, CaMKK2-treated and assayed in solution) was at least 10-fold more sensitive to activation by both MK-8722 and MSG011 (Supplementary Figure S3B), indicating the GST-affinity tag or CaMKK2 treatment may exert some influence on sensitivity to these activators.
Recombinant full-length AMPK 6xHisα2β1γ1 was expressed in E. coli Rosetta 2 (DE3) (Merck Millipore) after double-transformation of pET-Duet-1 (α and γ subunits) and pCOLA (β subunit) vectors. Expression cultures were grown at 37°C in Luria-Bertani broth supplemented with 100 µg ml^−1 ampicillin and 50 µg ml^−1 kanamycin. Cultures shaking at 120 rpm in PYREX 2800 ml Fernbach-style culture flasks with baffles (Corning) were grown to an optical density (OD600) of 3.0 before induction with 500 µM isopropyl-β-D-1-thiogalactopyranoside (IPTG; Gold Biotechnology) and incubation overnight at 16°C. Cell pellets were resuspended in lysis buffer (50 mM TRIS pH 7.6, 500 mM NaCl, 5% (v/v) glycerol, 50 mM imidazole, 2 mM β-mercaptoethanol, 0.01 mM leupeptin, 0.1 mM AEBSF, 0.5 mM benzamidine hydrochloride), lysed using a precooled EmulsiFlex-C5 homogeniser (Avestin) and clarified via centrifugation (16 000g, 30 min, 4°C). Supernatant was passed through a HisTrap HP 5 ml Ni^2+ column (GE Healthcare) at 1 ml min^−1. The column was washed with 10 column volumes of chilled Ni^2+ column buffer (50 mM TRIS pH 7.6, 500 mM NaCl, 10% (v/v) glycerol, 50 mM imidazole, 2 mM β-mercaptoethanol) before elution with Ni^2+ column buffer supplemented with 400 mM imidazole. Proteinaceous fractions were then separated on a HiLoad 16/600 Superdex 200 gel filtration column (GE Healthcare) pre-equilibrated with size exclusion column buffer (SEC buffer; 50 mM TRIS pH 8.0, 150 mM NaCl, 2 mM tris(2-carboxyethyl) phosphine (TCEP)). AMPK containing fractions were pooled and concentrated to ∼2 mg ml^−1 using Amicon centrifugal filter units (Merck Millipore) prior to CaMKK2 treatment.
To phosphorylate AMPK, purified protein was incubated in the presence of 0.5 mM ATP, 0.5 mM AMP, 2.5 mM MgCl2 (Merck Millipore), SEC buffer and purified CaMKK2 (1 : 2500 mass ratio of CaMKK2:AMPK; for 1 h at 22°C with gentle rolling. The phosphorylation reaction was terminated by directly loading onto a HiLoad 16/600 Superdex 200 gel filtration column pre-equilibrated with SEC buffer. Protein was either assayed or concentrated to ∼10 mg ml^−1 using Amicon centrifugal filter units and flash frozen in L-N2 and stored at −80°C. The purified AMPK was analysed by ToF-MS and sample purity confirmed by SDS–PAGE.
AMPK activity was determined by phosphorylation of the SAMS peptide (Purar Chemicals, sequence: NH2-HMRSAMSGLHLVKRR-COOH) in a 25 µl reaction volume containing 100 µM SAMS peptide, 5 mM MgCl2, 200 µM ATP, [γ-^32P]-ATP (PerkinElmer) and assay buffer (50 mM HEPES pH 7.4, 1 mM DTT and 0.02% (v/v) Tween-20) and purified AMPK. Phosphotransferase activity was conducted at 30°C for 10 min and reactions were quenched by spotting 15 µl onto phosphocellulose ion-exchange chromatography paper (made in-house), followed by repeated washes in 1% H3PO4 (Merck Millipore). Ultima Gold liquid scintillation fluid (5 ml; PerkinElmer) was added to vials containing dried phosphocellulose papers, and the level of ^32P-transfer to the SAMS peptide was determined using a Tri-Carb 2900TR liquid scintillation counter (PerkinElmer).
⍺1β1γ1 – in solution E. coli-expressed ⍺2β1γ1
log [compound] (M) log [compound] (M)
Compound EC (nM) Max. fold Compound EC50 (nM) Max. fold […]

T1 sequence (P54646 whole entry): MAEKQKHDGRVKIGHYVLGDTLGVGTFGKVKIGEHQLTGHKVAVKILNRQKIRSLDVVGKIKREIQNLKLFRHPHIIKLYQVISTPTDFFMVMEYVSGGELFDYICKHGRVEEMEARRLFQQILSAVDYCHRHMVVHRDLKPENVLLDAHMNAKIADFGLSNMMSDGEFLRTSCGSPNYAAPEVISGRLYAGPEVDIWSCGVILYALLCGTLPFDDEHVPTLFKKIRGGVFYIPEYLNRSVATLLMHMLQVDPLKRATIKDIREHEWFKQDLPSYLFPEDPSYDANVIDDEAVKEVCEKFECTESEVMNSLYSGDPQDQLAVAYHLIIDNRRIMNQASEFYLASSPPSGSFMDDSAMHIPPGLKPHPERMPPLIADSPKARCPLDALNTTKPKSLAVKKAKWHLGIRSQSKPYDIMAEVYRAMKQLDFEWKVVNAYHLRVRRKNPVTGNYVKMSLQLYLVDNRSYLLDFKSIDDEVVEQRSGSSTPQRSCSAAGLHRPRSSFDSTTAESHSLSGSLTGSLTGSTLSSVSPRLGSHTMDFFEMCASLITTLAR
T1 sequence (Q9Y478 whole entry): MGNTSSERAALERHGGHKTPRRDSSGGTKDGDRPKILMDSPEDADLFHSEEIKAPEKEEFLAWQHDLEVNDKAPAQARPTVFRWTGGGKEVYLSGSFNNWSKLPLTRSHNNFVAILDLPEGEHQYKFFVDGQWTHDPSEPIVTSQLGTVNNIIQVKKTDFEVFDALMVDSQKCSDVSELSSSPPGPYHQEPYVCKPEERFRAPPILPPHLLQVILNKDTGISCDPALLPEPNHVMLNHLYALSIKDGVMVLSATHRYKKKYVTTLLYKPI
T1 sequence (P54619 whole entry partner): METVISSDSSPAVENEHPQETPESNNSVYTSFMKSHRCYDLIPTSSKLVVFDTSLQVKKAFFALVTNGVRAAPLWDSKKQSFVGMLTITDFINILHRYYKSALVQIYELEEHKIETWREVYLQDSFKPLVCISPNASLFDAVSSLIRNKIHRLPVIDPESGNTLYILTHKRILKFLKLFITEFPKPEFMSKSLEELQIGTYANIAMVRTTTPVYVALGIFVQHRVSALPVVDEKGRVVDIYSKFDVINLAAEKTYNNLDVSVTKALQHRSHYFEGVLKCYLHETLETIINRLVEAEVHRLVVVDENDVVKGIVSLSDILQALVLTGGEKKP

What is called EC50 is the concentration that produces a half-maximal response. Lower therefore signals higher potency in that assay. For the compound `O[C@@H]1CO[C@H]2[C@@H]1OC[C@H]2Oc1nc2nc(-c3ccc(-c4ccccc4)cc3)c(Cl)cc2[nH]1` [MK-8722, reference compound], the EC50 is 334 nM, the Max. fold activation is given as 3.6 fold and the “sensitivity to activation relative to immobilised GST-α2β1γ1 from HEK293T/17 cells” value is given as “at least 10 fold”.

Take `CC(=O)NC1CC=C(c2ccc(-c3nc4nc(Oc5ccc(C)c(C(=O)O)c5)[nH]c4cc3Cl)cc2)CC1` (stereo not drawn) [MSG011, 5-((5-(4′-Acetamido-2′,3′,4′,5′-tetrahydro-[1,1′-biphenyl]-4-yl)-6-chloro-1H-imidazo[4,5-b]pyridin-2-yl)oxy)-2-methylbenzoic acid]: a half-maximal response (EC50) required 32.6 nM, the Max. fold activation came out at 5.5 fold and the “sensitivity to activation relative to immobilised GST-α2β1γ1 from HEK293T/17 cells” value was “at least 10 fold”.
